Data set [1] relates to Housefly. Nature of the data set: Housefly feeding test in sugar water. The class given is in vivo, Musca domestica Linneaus. As to conditions: Musca domestica; 5 ppm in sugar water; counts after 1 day and 3 days; read-out: % Kill, Housefly. The protocol:
Housefly -- Musca domestica Linneaus
Groups of 25 adult female houseflies three to 5 days old are lightly anesthetized with CO2, placed in wide-mouthed pint mason jars, and covered with a screen cap. The test compound is a 100 ppm. 35/65% water/acetone solution. Two milliliters of this is pipetted into a 10-dram vial and diluted to 40 ml. with 10% sugar solution, giving a final concentration of 5 ppm. in sugar water. The mouth of the vial is covered with a single layer of cheesecloth, inverted and placed on the screen cap of the fly jar, so that the flies can feed on the solution through the screen. Mortality counts are made after 1 day and 3 days at 80°F., 50% r.h.

Data set [2] has as its system Mexican Bean Beetle. Nature of the data set: Mexican Bean Beetle, dipped lima bean leaves. Type of data set: in vivo, Epilachna varivestis Mulsant. To be noted: Epilachna varivestis, read-out: % Kill, Mexican Bean Beetle. From the text:
Mexican Bean Beetle -- Epilachna varivestis Mulsant
Sieva lima bean plants (two per pot) with primary leaves 3 to 4 inches long, are dipped in a 35/65% water/acetone mixture containing 100 ppm. of test compound and set in the hood to dry. One leaf is removed from a plant and placed in a 4-inch petri dish containing a moist filter paper on the bottom and 10 last-instar larvae (13 days from hatching). The day after treatment, another leaf is removed from the plant and fed to the larvae after removing the remains of the original leaf. Two days after treatment, the third leaf is fed to the larvae, this usually being the last needed. The fourth leaf is used on the third day after treatment if the larvae have not finished feeding. The test is now set aside and held until adults have emerged, usually in about nine days after treatment began. After emergence is complete, each dish is examined for dead larvae, pupae or adults; deformed pupae or adults; larval-pupal intermediates or pupal-adult intermediates; or any other interference with normal molting, transformation and emergence of pupae or adults.

Data set [3] in a line: Mammalian toxicity, LD50 in mice. To be noted: mouse, in vivo; male albino mice, corn oil, 0.5 ml./kg. Type of data set: in vivo, male albino mice of the CFI strain. The protocol: (§1) For the tests reported in Table II, 20 male albino mice of the CFI strain, weighing approximately 18 grams to 20 grams are selected. The phosphates are readied for administration by preparing a solution or dispersion in corn oil (Mazola), the concentration of which is adjusted so that the total volume of the dose is 0.5 ml./kg. in every case. The initial solution is prepared by deciding upon the maximum dosage in mg./kg. to be administered and preparing 10 ml. of this solution of such a concentration that the desired dosage in mg./kg. is delivered when 0.5 ml. of the solution is administered for 20 grams of mouse body weight. Serial dilutions differing by a factor of two are then prepared for each lower dosage level. LD50 stands for the lethal dose in mg./kg. which kills 50% of the mice.

Data set [4] relates to mice. Nature of the data set: Mammalian toxicity, LD50 in mice. The class given is in vivo, male albino mice of the CFI strain. To be noted: versus O,O-diethyl S-(tert-butylsulfinyl)methyl phosphorodithioate. The protocol:
as §1

Data set [5] concerns insects. Nature of the data set: Insecticidal activity compared with art compound. Type of data set: in vivo. As to conditions: versus O,O-diethyl S-(tert-butylsulfinyl)methyl phosphorodithioate.
Data set [6] has as its system Southern Corn Rootworm. Nature of the data set: Soil Insecticide test, Southern Corn Rootworm. The class given is in vivo, Diabrotica undecimpunctata howardi Barber. As to conditions: 144 h, 6 days, read-out: % Kill, Soil Insecticide, Southern Corn Rootworm; for mortality at 1 ppm: 1 ppm in soil; for mortality at 10 ppm: 10 ppm in soil; for mortality at 100 ppm: 100 ppm in soil. The protocol:
Southern Corn Rootworm -- Diabrotica undecimpunctata howardi Barber
[…] Twelve and one-half milliliters of Littleton silt loam soil and 1 milliliter of millet seed (food for larvae) are added, the jars capped and the contents thoroughly mixed about 2 minutes on a rotary tumbler. Each jar then receives 5 ml. of tap water and ten southern corn rootworm larvae (Diabrotica undecimpunctata howardi Barber) 6 to 8 days old. The jars are loosely capped and placed in the holding room at 26.7°C. and 60% r.h. with constant light. Mortality counts are made after 6 days. Corrected percent mortality data is recorded on standard forms.

Data set [7] deals with Western Potato Leafhopper. Nature of the data set: Western Potato Leafhopper, dipped lima bean leaf. Type of data set: in vivo, Empoasca abrupta Say. As to conditions: 48 h, 2 days, read-out: % Kill, Western Potato Leafhopper. An excerpt:
Western Potato Leafhopper -- Empoasca abrupta Say
A Sieva lima bean plant with the primary leaf expanded to 3 to 4 inches is dipped into a 35/65% water/acetone mixture containing 100 ppm. of test compound and set in the hood to dry. A 1-inch piece of the tip of one leaf is cut off and placed in a 4-inch petri dish with a moist filter paper in the bottom. From three to 10 second-instar nymphs are tapped from the culture plants into the test dish and rapidly covered. Mortality counts are made after 2 days at 80°F., and 50% r.h.

The LD50 is the dose at which mortality reaches 50%. Turning to `CCOP(=S)(OCC)SCS(=O)(=O)C(C)(C)C` [O,O-diethyl S-(tert-butylsulfonyl)methyl Phosphorodithioate], the mortality at 5 ppm in data set [1] came to 100%. Also, in data set [2], the mortality at 100 ppm was 100%. Further, the LD50 in data set [3] turned out to be 14 mg/kg. For the same molecule, the “toxicity to mammals (mice) relative to art compound” value in data set [4] is reported as “much less toxic to mammals (mice) than the art compound”. In addition, the “insecticidal activity relative to art compound” value in data set [5] was “equal to, and in some cases superior to, this art compound”. In data set [6], the mortality at 1 ppm amounted to 100%, the mortality at 10 ppm turned out to be 100% and the mortality at 100 ppm was found to be 100%.
Regarding `CCOP(=S)(OCC)SC[S+]([O-])C(C)(C)C` (stereo not drawn) [O,O-diethyl S-(tert-butylsulfinyl)methyl phosphorodithioate, reference compound], in data set [1], the mortality at 5 ppm is 100%. In addition, in data set [7], the mortality at 10 ppm amounted to 100% and the mortality at 100 ppm amounted to 100%. In data set [2], the mortality at 10 ppm was 80% and the mortality at 100 ppm is 90%. Further, the LD50 in data set [3] was determined as 3.4 mg/kg. Besides, in data set [6], the mortality at 1 ppm turned out to be 95%, the mortality at 10 ppm came out at 100% and the mortality at 100 ppm was found to be 100%.
For `CCOP(=O)(OCC)SCS(=O)(=O)C(C)(C)C` [O,O-diethyl S-(tert-butylsulfonyl)methyl Phosphorothioate], in data set [1], the mortality at 5 ppm stood at 100%. Also, in data set [7], the mortality at 10 ppm is 100% and the mortality at 100 ppm stood at 100%. Besides, in data set [2], the mortality at 10 ppm is 70% and the mortality at 100 ppm turned out to be 90%. This molecule also displayed an LD50 in data set [3] of 3.4 mg/kg. In data set [6], the mortality at 1 ppm amounted to 0%, the mortality at 10 ppm came out at 100% and the mortality at 100 ppm was found to be 100%.
In the case of `CCOP(=O)(OCC)SC[S+]([O-])C(C)(C)C` (stereo not drawn) [O,O-diethyl S-(tert-butylsulfinyl)methyl Phosphorothioate], the mortality at 5 ppm in data set [1] is 100%. For the same molecule, in data set [7], the mortality at 10 ppm was 100% and the mortality at 100 ppm stood at 100%. In addition, in data set [2], the mortality at 10 ppm was 100% and the mortality at 100 ppm was 100%. The LD50 in data set [3] came out at 1.1 mg/kg. In data set [6], the mortality at 1 ppm was found to be 61%, the mortality at 10 ppm worked out at 100% and the mortality at 100 ppm was determined as 100%.

The values above are taken from patent US3939263A, “Methods of combatting insects and acarina using oxygenated derivatives of S-(tert-bulythio)methyl O,O-diethyl phosphorodithioate and phosphorothioate” (priority 1974, dated 1976).
